Data set [1] in a line: refractive index (Na D-line) (dimensionless). The settings on record: 298.15 K; 101.33 kPa; Liquid; Abbe refractometer.
For data set [2] the following is noted: 298.15 K; 101.33 kPa; Liquid; Vibrating tube method.

± gives the expanded uncertainty stated by the source.

Our source for the refractive index and mass density values is the NIST ThermoML archive (doi:10.1016/j.jct.2012.12.017).

`CCCCCCC` [heptane]: in data set [1], the refractive index – broadly, the speed of light in vacuum divided by its phase velocity in the sample – was determined as 1.38529 ± 0.00033. The mass density – broadly, mass per unit of volume – in data set [2] stood at 679.57 ± 0.25 kg/m3.

For `CCC[n+]1cccc(C)c1.O=S(=O)([N-]S(=O)(=O)C(F)(F)F)C(F)(F)F`, the refractive index in data set [1] was determined as 1.44485 ± 0.00033. The mass density in data set [2] is on record as 1447.94 ± 0.62 kg/m3.

Take `CCCCCC` [hexane]: the refractive index in data set [1] was 1.37241 ± 0.00033. Also, in data set [2], the mass density is on record as 655.2 ± 0.25 kg/m3.

Take `CCO` [ethanol]: in data set [1], the refractive index was 1.35936 ± 0.00033. In data set [2], the mass density stood at 785.2 ± 0.24 kg/m3.

Consider `CC[n+]1cccc(C)c1.O=S(=O)([N-]S(=O)(=O)C(F)(F)F)C(F)(F)F`, for which the refractive index in data set [1] was determined as 1.44376 ± 0.00033. The mass density in data set [2] was 1488.5 ± 0.66 kg/m3.
